Test results from PubChem BioAssay AID686957 (The Scripps Research Institute Molecular Screening Center, 2013).
Activity calls are given as the source filed them. No rule for the calls is given here.

Target: T-cell receptor (TCR)-CD3 interaction, human (TCR alpha chain TRAV4)
Assay: IC50 for blocking TCR-CD3 binding – biochemical, fluorescence, TAMRA-labeled TCR probe, dose response (AID 686957)

SMILES | IC50
Cc1ccc(NC(=O)NNC(=O)c2cc3ccccc3cc2O)cc1 | > 94.1 µM (inactive)
O=C(NNC(=O)C1CCN(S(=O)(=O)c2ccccc2)CC1)c1ccccc1O | > 94.1 µM (inactive)
COc1ccc2nc(C)cc(SCC(=O)N/N=C/c3ccc(O)c(O)c3)c2c1 | > 94.1 µM (inactive)
O=[N+]([O-])c1ccc(O)c(/C=N/NC(=S)Nc2ccc(Cl)cc2Cl)c1 | > 94.1 µM (inactive)
O=C(NNC(=O)c1cc(Cl)ccc1O)c1cccc(S(=O)(=O)N2CCOCC2)c1 | > 94.1 µM (inactive)
O=C(NNC(=O)c1ccccc1O)c1ccc(-c2ccc([N+](=O)[O-])cc2)o1 | > 94.1 µM (inactive)
O=C(CCc1ccc(S(=O)(=O)N2CCOCC2)cc1)N/N=C/c1ccc(O)c(O)c1O | > 94.1 µM (inactive)
O=C(N/N=C/c1cc([N+](=O)[O-])ccc1O)c1cccc(N2CCCC2=O)c1 | > 94.1 µM (inactive)
c1coc(-c2ccc3nncn3c2)c1 | inactive
NNC(=O)c1nc[nH]c1C(=O)Nc1ccccn1 | > 94.2 µM (inactive)
O=C(N/N=C/c1cccnc1)c1cc(O)c(O)c(O)c1 | > 94 µM (inactive)
O=C(N/N=C/c1c(O)n(CCc2ccccc2)c(=O)[nH]c1=O)c1ccccc1O | > 94 µM (inactive)
O=C(NNC(=S)NC(=O)c1cccc([N+](=O)[O-])c1)c1ccc(O)cc1 | > 94 µM (inactive)
CC(C)C(=O)Nc1ccc(C(=O)NNC(=S)NC(=O)c2ccccc2[N+](=O)[O-])cc1 | > 94.1 µM (inactive)
CN(C)S(=O)(=O)c1cccc(NC(=O)COC(=O)c2cc(-c3cccc(Br)c3)nc3ccccc23)c1 | inactive
COc1cc2ccccc2cc1C(=O)NNC(=O)c1ccccc1O | > 94.2 µM (inactive)
COc1ccc(NC(=O)CSc2sc3c(O)cc(=O)[nH]c3c2C#N)c(OC)c1 | > 94.1 µM (inactive)
C/C(=N\NC(=O)c1nnn(-c2nonc2N)c1CN(C)c1ccccc1)c1ccccc1O | > 94.1 µM (inactive)
Cc1ccc(O)c(/C=N/NC(=O)COc2ccc3c(C)cc(=O)oc3c2)c1 | > 94.1 µM (inactive)
CC/C(=N\NC(=O)c1ccccc1O)c1c(O)n(Cc2ccccc2)c(=O)[nH]c1=O | > 94.1 µM (inactive)
Cc1ccc(C(=O)NNC(=O)c2ccc3ccccc3c2O)cc1 | > 94 µM (inactive)
CC1CCCC(C)N1/N=C/c1ccc(O)c(O)c1 (stereo not drawn) | > 94.1 µM (inactive)
NS(=O)(=O)c1ccc(NC(=O)c2cccc(N3C(=O)c4ccccc4C3=O)c2)cc1 | > 94.1 µM (inactive)
COc1ccc(/C=N/NC(=O)c2cc(O)c(O)c(O)c2)cc1Cn1cc([N+](=O)[O-])cn1 | 3.84 µM

SMILES | IC50
CC(C)C(=O)Nc1ccc(C(=O)NNC(=S)NC(=O)c2ccco2)cc1 | > 94.1 µM (inactive)
Cc1cc2oc3ccc(NCCCn4ccnc4)cc3c(=O)c2cc1C | > 94.1 µM (inactive)
O=c1cc(-c2ccc(O)c(O)c2)oc2c1ccc1ccccc12 | 6.25 µM
O=C(CCN1CCN(c2ccccc2)CC1)N/N=C/c1ccc(O)c(O)c1O | > 94.1 µM (inactive)
Oc1c(Br)cc(Br)cc1/C=N/NC(=S)N[C@H]1CC2C=CC1C2 (stereo partly drawn) | > 94.1 µM (inactive)
CC(=O)c1ccc(NC(=O)CN2C(=O)/C(=C/C(C)=C/c3ccccc3)SC2=S)cc1 | > 94.1 µM (inactive)
COCCNC(=O)Nc1ccc2nc(-c3ccco3)c(-c3ccco3)nc2c1 | > 94.1 µM (inactive)
COc1ccc(C(=O)NC(=S)NNC(=O)c2ccc(O)cc2)cc1[N+](=O)[O-] | > 94.1 µM (inactive)
Cc1cccc(-n2c(O)c(/C=N/NC(=O)c3ccccc3Cl)c3ccccc3c2=O)n1 | > 94.1 µM (inactive)
COc1cc(O)c(/C=N/NC(=O)c2ccncc2)c(OC)c1[N+](=O)[O-] | > 94.1 µM (inactive)
O=[N+]([O-])c1cc(Br)c(O)c(/C=N/Nc2nnnn2-c2cccc3ccccc23)c1 | > 94.1 µM (inactive)
COc1ccc(C(=O)NNC(=S)NC(=O)c2cccs2)cc1 | > 94 µM (inactive)
Cn1c(=O)c(C(=O)NNC(=O)c2ccccc2F)c(O)c2ccccc21 | > 94.1 µM (inactive)
CCOC(=O)C1=C(CC)Nc2ccccc2N=C1NC(=O)Nc1ccc(Cl)c(Cl)c1 | inactive
CNC(=S)NNC(=O)c1oc2nc(-c3ccccc3)cc(-c3ccco3)c2c1N | > 94.1 µM (inactive)
O=C(NNC(=S)NC1CCCCC1)c1ccccc1O | > 94.1 µM (inactive)
Cc1ccc(-n2c(O)c(/C=N/NC(=O)C3COc4ccccc4O3)c3ccccc3c2=O)cc1 (stereo not drawn) | > 94.1 µM (inactive)
COc1cccc(OCC(=O)NNC(=O)c2ccc3ccccc3c2O)c1 | > 94.1 µM (inactive)
O=C(NNC(=O)c1c(O)c2ccccc2[nH]c1=O)c1ccccc1 | > 94.1 µM (inactive)
Cc1cc(/C=N/n2c(COc3ccccc3C)nc3ccccc3c2=O)c(O)c([N+](=O)[O-])c1 | > 94.1 µM (inactive)
O=c1oc2ccccc2c2oc3cc(O)c(O)cc3c12 | > 94.2 µM (inactive)
COc1cc(/C=N/NC(=O)c2cc(O)cc(O)c2)ccc1OC(=O)c1ccccc1 | > 94.1 µM (inactive)
Cc1ccc(-c2[nH]c3cc(C(=O)NCCCn4ccnc4)ccc3c(=O)c2O)cc1 | inactive
Cc1ccc(/C=C2\SC(=S)N(CCCC(=O)NNC(=O)c3ccccc3O)C2=O)cc1 | > 94.1 µM (inactive)

SMILES | IC50
O=C(NNC(=O)c1cc2ccccc2cc1O)Nc1ccc(F)cc1F | > 94.1 µM (inactive)
Cc1ccccc1C(=O)Nc1cccc(C(=O)N/N=C/c2cc(Cl)cc([N+](=O)[O-])c2O)c1 | > 94.1 µM (inactive)
Cc1c(C(=O)NNC(=O)c2ccccc2O)oc2ccccc12 | > 94 µM (inactive)
COc1ccc(C(=O)NNC(=S)NC(=O)c2cccnc2)cc1 | > 94.1 µM (inactive)
O=c1c2c(-c3ccc(Cl)cc3)csc2ncn1/N=C/c1cccc([N+](=O)[O-])c1O | > 94.1 µM (inactive)
O=C(NNC(=O)c1ccc2ccccc2c1O)c1ccccc1Cl | > 94.1 µM (inactive)
O=C1C=C(NCCc2cc(Br)c(O)c(Br)c2)C(=O)c2ncccc21 | inactive
O=C(CNC(=O)c1ccccc1Br)N/N=C\c1cc([N+](=O)[O-])cc(Br)c1O | > 94.1 µM (inactive)
Oc1ccc(/C=N/N=C/c2ccc(O)c(O)c2)cc1O | 2.24 µM
CC(=O)c1cccc(NC(=O)C(OC(=O)c2cccc(S(=O)(=O)N(C)c3ccccc3)c2)c2ccccc2)c1 (stereo not drawn) | inactive
Cc1ccc2nc(-c3ccc(O)c(O)c3)cn2c1 | > 94.1 µM (inactive)
O=C(N/N=C/c1cc(Cl)cc([N+](=O)[O-])c1O)c1cccc(S(=O)(=O)N2CCOCC2)c1 | > 94.1 µM (inactive)
CCCCCC(=O)NC(=S)NC1C2CC3CC(C2)CC1C3 (stereo not drawn) | > 94.1 µM (inactive)
O=C(O)CC(CCc1ccccc1)OC1OC(CO)C(O)C(O)C1O (stereo not drawn) | > 94.1 µM (inactive)
COc1ccc(-c2cnnn2-c2ccc(NC(=O)c3ccc(S(=O)(=O)N4CCCCC4)cc3)cc2)cc1OC | inactive
Nc1c(C(=O)NCC2CCCO2)sc2nc3c(c(-c4ccco4)c12)CC/C3=C\c1ccco1 (stereo not drawn) | inactive
COc1cc(/C=N/NC(=O)COc2ccc(Cl)cc2)ccc1OS(=O)(=O)c1ccc(C)cc1 | inactive
O=c1c(CO)cc(CO)cc(CO)c1O | inactive
O=Nc1[nH]c(=O)c(/C=C(\O)c2ccccc2)nc1NO | > 94.2 µM (inactive)
O=C(NNC(=O)c1ccccc1F)c1cccc(-n2cccc2)c1 | > 94 µM (inactive)
COc1ccccc1N(C)S(=O)(=O)c1ccc(C(=O)NNC(=O)c2ccccc2O)cc1 | > 94.1 µM (inactive)
O=C(N/N=C/c1ccc(F)cc1)c1cc(-c2ccco2)nc2ccccc12 | > 94.1 µM (inactive)
Cc1onc(-c2ccccc2)c1C(=O)NN=Cc1cc(Cl)cc(Cl)c1O | > 94 µM (inactive)
COc1cc(Br)cc2cc(C(=O)N3CCN(C(=O)c4ccco4)CC3)c(=O)oc12 | > 94.1 µM (inactive)

SMILES | IC50
CNC(=S)NNC(=O)c1cccn(Cc2ccccc2)c1=O | > 94.2 µM (inactive)
Cc1cc(C(=O)N/N=C/c2cc(Cl)cc([N+](=O)[O-])c2O)c2ccccc2n1 | > 94.1 µM (inactive)
COc1ccccc1NC(=O)NNC(=O)c1cc2ccccc2cc1O | > 94.1 µM (inactive)
C/C(=N\OCc1nc2ccccc2c(=O)n1/N=C/c1cc(C)cc([N+](=O)[O-])c1O)c1ccccc1 | > 94.1 µM (inactive)
COC(=O)Nc1ccc(S(=O)(=O)NNC(=O)c2c(O)c3ccccc3n(C)c2=O)cc1 | > 94.1 µM (inactive)
O=C(NNC(=O)c1ccc2ccccc2c1O)NC1CCCCC1 | > 94.1 µM (inactive)
O=c1cc(-c2ccc(O)cc2)oc2c(O)c(O)c(O)c(O)c12 | > 94.2 µM (inactive)
O=C(NNC(=O)c1ccc2ccccc2c1O)Nc1ccc(F)cc1 | > 94.1 µM (inactive)
COc1ccc(C(=O)NNC(=S)NC(=O)c2ccc(Br)o2)cc1OC | > 94.1 µM (inactive)
CNC(=S)NNC(=O)c1cccn(Cc2ccc(Cl)c(Cl)c2)c1=O | > 94 µM (inactive)
O=C1NC(=S)S/C1=C\C=C\c1ccc([N+](=O)[O-])o1 | > 94.1 µM (inactive)
Cc1ccc(O)c(-c2cc(C(=O)Nc3ccc(S(=O)(=O)Nc4nccc(C)n4)cc3)[nH]n2)c1 | > 94.1 µM (inactive)
Cc1nc2ccccc2c(=O)n1/N=C/c1cc(Br)cc(Br)c1O | > 94.1 µM (inactive)
CC(=O)NC(CC(=O)NNC(=O)c1cc2ccccc2cc1O)c1ccccc1 (stereo not drawn) | > 94.1 µM (inactive)
CCOc1ccc(C(=O)CCC(=O)NNC(=O)c2ccccc2O)cc1 | > 94.1 µM (inactive)
COc1ccc(C(=O)Nc2nnc(CC(=O)N/N=C/c3ccc(O)cc3O)s2)cc1 | > 94.1 µM (inactive)
O=C(N/N=C/c1cc(Cl)cc([N+](=O)[O-])c1O)c1ccc2c(c1)OCO2 | > 94.1 µM (inactive)
O=C(CCCN1C(=O)/C(=C/c2cccs2)SC1=S)NNC(=O)c1ccccc1O | > 94.1 µM (inactive)
O=C(N/N=C/c1cc(Br)cc(Cl)c1O)c1ccc2c(c1)OCO2 | > 94.1 µM (inactive)
O=C(CCN1C(=O)/C(=C\c2ccccc2)SC1=S)NNC(=O)c1ccccc1O | > 94.1 µM (inactive)
Nc1ccc([N+](=O)[O-])cc1C(=O)NNC(=O)c1ccco1 | > 94.1 µM (inactive)
